Data taken from patent US20190226949A1, “IRIDIUM COMPLEXES FOR CELLULAR IMAGING” (UNIVERSITY OF SOUTH AUSTRALIA, priority 2016, published 2019).
Where “and” joins values, the source holds several entries; their conditions need not be identical. Equal entries are not always repeated.

Assays:
[1] = Photophysical measurements (absorption, emission, lifetime, quantum yield) in diluted solutions; assay type: physicochemical
Description: A summary of the photophysical data for the complexes as diluted solutions (10^−5 M) in dichloromethane, water, PBS, lysosomal fluid solution, and ethyl laurate is reported in Table 1. All the listed aqueous media also contain 0.1% DMSO to favour the solubilisation of the complexes. The various solvents have been chosen to identify potential modulations on the photophysical behaviour of the iridium complexes in diverse cellular environments such as cytoplasm, endosome/lysosomes acidic organelles, or lipid-rich compartments like membranes, endoplasmic reticulum, and lipid droplets. In general, the photophysical characteristics were measured in aerated solutions to take into account the presence of oxygen in live cells. On the other hand, dichloromethane solutions were compared as aerated and degassed to confirm oxygen sensitivity and triplet character of the excited states of the complexes.
Absorption spectra were recorded at room temperature using a Cary 4000 UV/Vis spectrometer. Uncorrected steady state emission and excitation spectra were recorded on an Edinburgh FLSP980-S2S2-stm spectrometer equipped with: i) a temperature-monitored cuvette holder; ii) 450 W Xenon arc lamp; iii) double excitation and emission monochromators; iv) a Peltier cooled Hamamatsu R928P photomultiplier tube (spectral range 200-870 nm). Emission and excitation spectra were corrected for source intensity (lamp and grating) and emission spectral response (detector and grating) by a calibration curve supplied with the instrument. According to the approach described by Demas and Crosby, luminescence quantum yields (Φem) were measured in optically dilute solutions (O.D.<0.1 at excitation wavelength) obtained from absorption spectra on a wavelength scale [nm] and compared to the reference emitter by the following equation: […]
where A is the absorbance at the excitation wavelength (λ), I is the intensity of the excitation light at the excitation wavelength (λ), n is the refractive index of the solvent, D is the integrated intensity of the luminescence and Φ is the quantum yield. The subscripts r and x refer to the reference and the sample, respectively. The quantum yield determinations were performed at identical excitation wavelength for the sample and the reference, therefore cancelling the I(λr)/I(λx) term in the equation. The quantum yields of complexes were measured against Rubipy in water (Φr=0.028). Emission lifetimes (z) were determined with the time correlated single photon counting technique (TCSPC) with the same Edinburgh FLSP980-S2S2-stm spectrometer using either a pulsed picosecond LED (EPLED/EPL 377 nm, FHWM<800 ps) or a microsecond flashlamp. The goodness of fit was assessed by minimising the reduced χ^2 function and by visual inspection of the weighted residuals. The solvents used for the preparation of the solutions for the photophysical investigations were of LR grade and the water was deionised. Degassing of the dichlorometane solutions was performed using the freeze-pump-thaw method. Experimental uncertainties are estimated to be ±8% for lifetime determinations, ±20% for quantum yields, ±2 nm and ±5 nm for absorption and emission peaks, respectively.

[2] = Lipophilicity by shake-flask method (7.4-buffered PBS / n-octanol); assay type: physicochemical; settings: pH 7.4; 7.4-buffered PBS solution and n-octanol; read-out: logD7.4, distribution coefficient
Method: The lipophilicity of the iridium complexes was measured by the shake-flask method using 7.4-buffered PBS and n-octanol as solvents (Table 2). The values range between 1.49 and 2.68 are typical for cyclometalated iridium complexes that have not been bioconjugated. […] In general, neutral complexes have log D7.4 values above 2.00 and there is an increased in lipophilicity of extending the tetrazolato ligand with the addition of a phenyl spacer in [Ir(ppy)2(TzPyPhCN)], or by extending the conjugation on passing from pyridine to quinoline or isoquinoline for [Ir(ppy)2(TzQn)] and [Ir(ppy)2(TziQn)]. Methylation in all cases reduces lipophilicity to log D7.4 values […], with the same trend within the family of methylated complexes as previously observed for the neutral ones.

[3] = system: H9c2 rat cardiomyoblast cells; test: Staining and co-staining of live H9c2 cells, confocal and two-photon microscopy; assay type: cell-based
Method: Live H9c2 rat cardiomyoblasts were incubated with the iridium complexes for 30 minutes. Complexes were made to a final concentration of 20 μM in the cell culture medium with DMSO concentration <0.2%. Under these conditions, the luminescence from the iridium complexes within the cells was detected via confocal microscopy under single-photon excitation (403 nm) or two-photon excitation (810-840 nm).
To determine the localisation of the iridium complexes, co-staining experiments were carried out with the use of ER-Tracker™ Red (endoplasmic reticulum), LysoTracker® Red DND-99 (acidic compartments), MitoTracker® Red (mitochondria), BODIPY® 500/510 C1, C12(fatty acid) or β-BODIPY® FL HPC (phospholipids). […] This difference was also in agreement with the trend of the quantum yield data illustrated before and detection of internalised complex by ICP-MS.
H9c2 rat cardiomyoblast cell line was a kind gift from Professor Janna Morrison (University of South Australia). The H9c2 cells were maintained in high-glucose (4500 mg/L) DMEM medium (Sigma-Aldrich, USA) containing 10% fetal bovine serum (FBS; In Vitro Technologies, USA) and 2 mM L-glutamine (Sigma-Aldrich, USA) at 37° C. and 5% CO2. The H9c2 cells were cultured in […] flasks, and cells (1×10^6 cells/mL) that had been passaged, from two up to five times were used for experiments. For live cell imaging and MTS assay, the H9c2 cells (1×10^5 cells/mL) were cultured overnight in either ibidi μ-Slide 8 wells in a final volume of 250 μL or 96-well microtiter plate in a final volume of 200 μL in absence of Ir-based molecular probes.
The H9c2 cells were incubated with 20 μM of Ir-based molecular probes for 30 minutes in FBS-free media (300 μL) at 37° C. and 5% CO2. These cells were washed twice with phosphate buffered saline (PBS) and once with FBS-free media, and then co-stained with either ER-Tracker™ Red (BODIPY® TR Glibenclamide), LysoTracker® Red DND-99, MitoTracker® Red CMXRos (1H,5H,11H,15H-Xantheno[2,3,4-ij:5,6,7-i′j′]diquinolizin-18-ium, 9-[4-(chloromethyl)phenyl]-2,3,6,7,12,13,16,17-octahydro-, chloride), β-BODIPY® FL C5-HPC (2-(4,4-Difluoro-5,7-Dimethyl-4-Bora-3a,4a-Diaza-s-Indacene-3-Pentanoyl)-1-Hexadecanoyl-sn-Glycero-3-Phosphocholine) or BODIPY® 500/510 C1, C12 (4,4-Difluoro-5-Methyl-4-Bora-3a,4a-Diaza-s-Indacene-3-Dodecanoic Acid), which were obtained from Life Technologies Australia Pty Ltd, Australia. Cell biology analysis was carried out with a minimum of two experimental groups. Imaging analysis was performed using a Nikon A1+ confocal microscope equipped with 403 nm, 488 nm, 561 nm and 640 nm solid-state lasers (Nikon, Japan) and OKOLab Microscope Incubator (Okolab USA Inc., USA). The final preparation of the images was conducted with Adobe Photoshop CC (Adobe Systems Inc., USA).
The H9c2 cells were incubated with 20 μM of Ir-based molecular probes for 30 minutes in FBS-free media (300 μL) at 37° C. and 5% CO2. These cells then were washed with phosphate buffered saline (PBS) and imaged using Zeiss LSM710 META NLO inverted microscope supplemented with a two-photon Mai-Tai®, tunable Ti:Sapphire femtosecond pulse laser (710-920 nm, Spectra-Physics). Fluorescence of Ir-based molecular probes was detected using the following settings: two-photon excitation wavelength 830 nm, beam splitter MBS 690+, emission interval 520-650 nm. The H9c2 cells were exposed to two-photon illumination between 810-840 nm. A continuum of lambda stack images was captured across the emission spectrum 416-728 nm. The images were acquired using a Plan-APOCHROMAT 63X/NA1.4 oil immersion objective. The final preparation of the images was conducted with Adobe Photoshop CC (Adobe Systems Inc., USA).

Compound: C[n+]1nc2[n](n1)[Ir]13([c]4ccccc4-c4cccc[n+]41)([c]1ccccc1-c1cccc[n+]13)[n+]1ccc3ccccc3c1-2 [[Ir(ppy)2(MeTziQn)]^+]
- Absorption λabs [nm] (10^4ε [M^−1cm^−1]) ([1]; DCM, 10^−5 M): 253 (6.96) nm (10^4ε [M^−1cm^−1]) and 303 (2.45) nm (10^4ε [M^−1cm^−1]) and 371 (1.24) nm (10^4ε [M^−1cm^−1])
- Emission λem ([1]; DCM, 298K, 10^−5 M): 640 nm
- τaer, excited state lifetime (relative weight in parentheses) ([1]; DCM, aerated, 298K): 208 ns
- Φaer, quantum yield ([1]; DCM, aerated, versus Ru(bpy)3^2+ in water (φr = 0.028)): 0.049
- τdeaer, excited state lifetime (relative weight in parentheses) ([1]; DCM, deaerated, 298K): 485 ns
- Φdeaer, quantum yield ([1]; DCM, deaerated, versus Ru(bpy)3^2+ in water (φr = 0.028)): 0.063
- knr ([1]; DCM, calculated as [(1 − φ)/τ] from deaerated solutions): 1.932 10^6s^−1
- kr ([1]; DCM, calculated as [φ/τ] from deaerated solutions): 1.299 10^5s^−1
- Absorption λabs [nm] (10^4ε [M^−1cm^−1]) ([1]; H2O with 0.1% DMSO, 10^−5 M): 251 (6.64) nm (10^4ε [M^−1cm^−1]) and 291 (2.60) nm (10^4ε [M^−1cm^−1]) and 355 (1.36) nm (10^4ε [M^−1cm^−1])
- Emission λem ([1]; H2O with 0.1% DMSO, 298K, aerated): 660 nm
- Φ, quantum yield ([1]; H2O with 0.1% DMSO, aerated, versus Ru(bpy)3^2+ in water): 0.004
- red-shift of emission from ethyl laurate to dichloromethane ([1]; ethyl laurate vs dichloromethane): almost no shift is observed
- logD [2]: 1.49 ± 0.06
- cellular localisation (co-staining) ([3]; live H9c2, 20 μM, 30 minutes): preferential localisation in the endoplasmic reticulum and fatty acids and phospholipids
- emission profile from cells ([3]; live H9c2, one-photon or two-photon excitation): red-shifted consistently with the photophysical data
